Assay results taken from ChEMBL document CHEMBL1817621, “SAR studies of acidic dual γ-secretase/PPARγ modulators” (Bioorg Med Chem, 2011).
The source made the active and inactive calls. The calls are words filed in the database; no cut-off is given here.

Biological target: T1, Peroxisome proliferator-activated receptor alpha (Homo sapiens) (UniProt Q07869)
T1 sequence (whole entry): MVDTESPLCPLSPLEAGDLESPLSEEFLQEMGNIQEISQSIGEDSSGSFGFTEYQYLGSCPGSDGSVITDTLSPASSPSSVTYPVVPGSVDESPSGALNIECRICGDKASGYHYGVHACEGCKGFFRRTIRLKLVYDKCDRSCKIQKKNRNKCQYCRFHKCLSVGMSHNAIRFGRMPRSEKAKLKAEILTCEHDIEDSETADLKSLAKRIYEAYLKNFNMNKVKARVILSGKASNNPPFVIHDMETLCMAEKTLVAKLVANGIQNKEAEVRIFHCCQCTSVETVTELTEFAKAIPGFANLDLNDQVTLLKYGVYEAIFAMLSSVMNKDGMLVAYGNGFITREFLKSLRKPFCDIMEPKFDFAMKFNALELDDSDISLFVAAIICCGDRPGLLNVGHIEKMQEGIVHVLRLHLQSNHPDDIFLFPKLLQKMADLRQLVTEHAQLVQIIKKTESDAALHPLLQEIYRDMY
Assay: Modulation of human PPARalpha-LBD expressed in african green monkey COS7 cells co-transfected with Gal4 assessed as activation of transactivation activity at 10 uM by luciferase assay
Format: cell-based
Settings: COS-7

Compound | Activity
CCCCC(Cc1cc(OCCc2ccccc2)cc(OCCc2ccccc2)c1)C(=O)O (configuration not stated) | inactive
CCCCC(Cc1ccc(OCCC2CCCCC2)c(OCCc2ccccc2)c1)C(=O)O (configuration not stated) | inactive
CCCCC(Cc1ccc(OCCc2ccccc2)c(OCCC2CCCCC2)c1)C(=O)O (configuration not stated) | inactive

Biological target: T2, Peroxisome proliferator-activated receptor delta (Homo sapiens) (UniProt Q03181)
T2 sequence (whole entry): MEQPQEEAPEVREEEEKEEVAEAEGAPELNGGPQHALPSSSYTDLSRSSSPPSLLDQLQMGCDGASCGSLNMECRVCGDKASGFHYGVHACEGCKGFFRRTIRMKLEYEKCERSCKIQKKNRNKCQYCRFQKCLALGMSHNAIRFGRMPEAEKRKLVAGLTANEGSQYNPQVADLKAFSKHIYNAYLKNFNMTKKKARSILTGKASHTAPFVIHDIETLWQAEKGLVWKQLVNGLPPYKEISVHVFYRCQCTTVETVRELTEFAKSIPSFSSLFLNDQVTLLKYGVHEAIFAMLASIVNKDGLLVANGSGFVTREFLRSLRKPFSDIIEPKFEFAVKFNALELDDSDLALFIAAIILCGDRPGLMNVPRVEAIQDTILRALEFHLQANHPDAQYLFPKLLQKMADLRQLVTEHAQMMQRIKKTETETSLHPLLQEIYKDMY
Assay: Modulation of human PPARdelta-LBD expressed in african green monkey COS7 cells co-transfected with Gal4 assessed as activation of transactivation activity at 10 uM by luciferase assay
Format: cell-based
Settings: COS-7

Compound | Activity
CCCCC(Cc1cc(OCCc2ccccc2)cc(OCCc2ccccc2)c1)C(=O)O (configuration not stated) | inactive
CCCCC(Cc1ccc(OCCC2CCCCC2)c(OCCc2ccccc2)c1)C(=O)O (configuration not stated) | inactive
CCCCC(Cc1ccc(OCCc2ccccc2)c(OCCC2CCCCC2)c1)C(=O)O (configuration not stated) | inactive

Biological target: T3, Peroxisome proliferator-activated receptor gamma (Homo sapiens, UniProt P37231)
T3 sequence (P37231 whole entry): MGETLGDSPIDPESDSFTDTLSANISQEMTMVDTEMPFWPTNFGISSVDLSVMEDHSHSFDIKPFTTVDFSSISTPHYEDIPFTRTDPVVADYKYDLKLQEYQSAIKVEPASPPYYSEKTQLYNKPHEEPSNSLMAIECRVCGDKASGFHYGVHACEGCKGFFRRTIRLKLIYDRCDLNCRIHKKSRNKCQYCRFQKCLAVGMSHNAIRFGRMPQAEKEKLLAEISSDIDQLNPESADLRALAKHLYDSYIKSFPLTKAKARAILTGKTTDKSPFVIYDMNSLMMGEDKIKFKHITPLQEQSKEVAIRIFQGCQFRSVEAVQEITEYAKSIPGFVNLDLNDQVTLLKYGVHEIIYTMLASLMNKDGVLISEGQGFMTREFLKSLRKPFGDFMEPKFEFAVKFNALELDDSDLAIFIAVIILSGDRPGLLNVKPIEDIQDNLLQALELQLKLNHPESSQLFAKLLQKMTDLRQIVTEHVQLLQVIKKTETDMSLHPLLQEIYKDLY
Assay: Modulation of human PPARgamma-LBD expressed in african green monkey COS7 cells co-transfected with Gal4 assessed as activation of transactivation activity by luciferase assay
Format: cell-based, COS-7
Settings: not given

Compound | EC50 [µM]
CCCCC(Cc1cc(OCCc2ccccc2)cc(OCCc2ccccc2)c1)C(=O)O (configuration not stated) | 4.7
CCCCC(Cc1ccc(OCCC2CCCCC2)c(OCCc2ccccc2)c1)C(=O)O (configuration not stated) | 2.5
CCCCC(Cc1ccc(OCCc2ccccc2)c(OCCC2CCCCC2)c1)C(=O)O (configuration not stated) | 1.5

Biological target: T4, Peroxisome proliferator-activated receptor gamma (Homo sapiens) (UniProt P37231)
T4 sequence (whole entry): T3 sequence (P37231 whole entry)
Assay: Modulation of human PPARgamma-LBD expressed in african green monkey COS7 cells co-transfected with Gal4 assessed as activation of transactivation activity by luciferase assay relative to pioglitazone
Format: cell-based
Settings: COS-7

Compound | Emax [%]
CCCCC(Cc1cc(OCCc2ccccc2)cc(OCCc2ccccc2)c1)C(=O)O (configuration not stated) | 71
CCCCC(Cc1ccc(OCCC2CCCCC2)c(OCCc2ccccc2)c1)C(=O)O (configuration not stated) | 61
CCCCC(Cc1ccc(OCCc2ccccc2)c(OCCC2CCCCC2)c1)C(=O)O (configuration not stated) | 128

Tested on: not listed separately
Assay: Modulation of gamma-secretase expressed in CHO cells co-expressing human APP and wild type human presenilin-1 assessed as inhibition of amyloid beta42 production by ELISA
Format: cell-based
Settings: not given

Compound | IC50 [µM]
CCCCC(Cc1cc(OCCc2ccccc2)cc(OCCc2ccccc2)c1)C(=O)O (configuration not stated) | 38.4
CCCCC(Cc1ccc(OCCC2CCCCC2)c(OCCc2ccccc2)c1)C(=O)O (configuration not stated) | > 40
CCCCC(Cc1ccc(OCCc2ccccc2)c(OCCC2CCCCC2)c1)C(=O)O (configuration not stated) | > 40

Tested on: not listed separately
Assay: Modulation of gamma-secretase expressed in CHO cells co-expressing human APP and wild type human presenilin-1 assessed as increase of amyloid beta38 production by ELISA
Format: cell-based
Settings: not given

Compound | EC50 [µM]
CCCCC(Cc1cc(OCCc2ccccc2)cc(OCCc2ccccc2)c1)C(=O)O (configuration not stated) | 28.1
CCCCC(Cc1ccc(OCCC2CCCCC2)c(OCCc2ccccc2)c1)C(=O)O (configuration not stated) | > 40
CCCCC(Cc1ccc(OCCc2ccccc2)c(OCCC2CCCCC2)c1)C(=O)O (configuration not stated) | > 40

Biological target: T5, Prostaglandin G/H synthase 1 (Ovis aries) (UniProt P05979)
T5 sequence (whole entry): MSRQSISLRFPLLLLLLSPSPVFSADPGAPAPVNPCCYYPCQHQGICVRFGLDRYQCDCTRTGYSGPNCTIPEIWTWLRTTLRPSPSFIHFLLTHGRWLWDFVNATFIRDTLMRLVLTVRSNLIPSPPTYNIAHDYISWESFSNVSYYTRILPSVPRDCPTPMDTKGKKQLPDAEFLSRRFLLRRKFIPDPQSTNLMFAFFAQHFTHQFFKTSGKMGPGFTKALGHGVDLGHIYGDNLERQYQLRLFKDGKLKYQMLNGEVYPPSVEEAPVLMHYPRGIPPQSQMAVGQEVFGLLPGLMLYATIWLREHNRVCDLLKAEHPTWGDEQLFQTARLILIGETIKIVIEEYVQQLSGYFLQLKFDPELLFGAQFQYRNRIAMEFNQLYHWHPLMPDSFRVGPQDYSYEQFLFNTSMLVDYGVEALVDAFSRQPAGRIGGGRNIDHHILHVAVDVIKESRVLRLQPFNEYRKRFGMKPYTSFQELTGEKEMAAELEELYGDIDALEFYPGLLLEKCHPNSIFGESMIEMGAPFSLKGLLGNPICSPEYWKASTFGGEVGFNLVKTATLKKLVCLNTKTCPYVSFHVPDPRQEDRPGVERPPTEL
Assay: Inhibition of ovine COX-1 assessed as residual activity by measuring formation of 12-HHT from arachidonic acid at 10 uM by HPLC analysis
Settings: not given

Compound | Activity [%]
CCCCC(Cc1cc(OCCc2ccccc2)cc(OCCc2ccccc2)c1)C(=O)O (configuration not stated) | 78.7
CCCCC(Cc1ccc(OCCC2CCCCC2)c(OCCc2ccccc2)c1)C(=O)O (configuration not stated) | 69.1
CCCCC(Cc1ccc(OCCc2ccccc2)c(OCCC2CCCCC2)c1)C(=O)O (configuration not stated) | 82

Biological target: T6, Prostaglandin G/H synthase 2 (Homo sapiens) (UniProt P35354)
T6 sequence (whole entry): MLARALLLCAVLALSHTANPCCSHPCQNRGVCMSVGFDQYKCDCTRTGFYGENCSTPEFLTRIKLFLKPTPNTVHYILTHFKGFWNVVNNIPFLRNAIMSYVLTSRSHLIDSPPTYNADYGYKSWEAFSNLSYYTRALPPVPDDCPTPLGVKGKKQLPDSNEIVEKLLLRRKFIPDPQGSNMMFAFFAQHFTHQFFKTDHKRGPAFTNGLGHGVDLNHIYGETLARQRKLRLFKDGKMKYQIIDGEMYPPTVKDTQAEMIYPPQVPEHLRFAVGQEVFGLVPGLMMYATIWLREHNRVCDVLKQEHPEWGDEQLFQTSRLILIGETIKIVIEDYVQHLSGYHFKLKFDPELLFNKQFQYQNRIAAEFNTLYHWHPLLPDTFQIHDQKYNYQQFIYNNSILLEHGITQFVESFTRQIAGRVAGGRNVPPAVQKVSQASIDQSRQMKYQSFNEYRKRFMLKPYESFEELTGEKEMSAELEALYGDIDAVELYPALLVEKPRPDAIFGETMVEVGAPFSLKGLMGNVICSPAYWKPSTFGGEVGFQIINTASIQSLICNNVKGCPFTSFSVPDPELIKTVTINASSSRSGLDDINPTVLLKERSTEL
Assay: Inhibition of human recombinant COX-2 assessed as residual activity by measuring formation of 12-HHT from arachidonic acid at 10 uM by HPLC analysis
Settings: not given

Compound | Activity [%]
CCCCC(Cc1cc(OCCc2ccccc2)cc(OCCc2ccccc2)c1)C(=O)O (configuration not stated) | 78.4
CCCCC(Cc1ccc(OCCC2CCCCC2)c(OCCc2ccccc2)c1)C(=O)O (configuration not stated) | 91.5
CCCCC(Cc1ccc(OCCc2ccccc2)c(OCCC2CCCCC2)c1)C(=O)O (configuration not stated) | 96.6

Tested on: CHO
Assay: Cytotoxicity against CHO cells expressing human APP and wild type human presenilin-1 assessed as reduction of cell viability up to 40 uM after 24 hrs by Alamar blue assay
Format: cell-based, Cricetulus griseus
Settings: chinese hamster

Compound | Activity
CCCCC(Cc1cc(OCCc2ccccc2)cc(OCCc2ccccc2)c1)C(=O)O (configuration not stated) | Non-toxic
CCCCC(Cc1ccc(OCCC2CCCCC2)c(OCCc2ccccc2)c1)C(=O)O (configuration not stated) | Non-toxic
CCCCC(Cc1ccc(OCCc2ccccc2)c(OCCC2CCCCC2)c1)C(=O)O (configuration not stated) | Non-toxic
